Our source for the remaining activity, MIC and IC50 values is publication PMC11378028 (RSC Advances, 2024).

One test has as its target E. coli topoisomerase IV (Escherichia coli, UniProt P20083). The experiment in a line: topoisomerase IV relaxation plate assay. The settings on record: for remaining activity at 10 µM / remaining activity at 1 µM: read-out: RA (residual activity) E. coli topo IV. It is filed as biochemical.
The next test has as its system S. aureus ATCC 29213. The experiment in a line: MIC, broth microdilution. Format: cell-based, Staphylococcus aureus. The settings on record: Staphylococcus aureus, ATCC29213, read-out: MIC S. aureus ATCC 29213, broth microdilution. On the technique in general: Dilution methods test growth across graded concentrations, often in twofold steps.
Test [1] has as its system S. aureus ATCC 43300 (MRSA). The experiment in a line: MIC, broth microdilution. Format: cell-based. The settings on record: Staphylococcus aureus, ATCC43300|MRSA, read-out: MIC S. aureus ATCC 43300 (MRSA).
Test [2] relates to S. aureus ATCC 700699 (VISA). Description: MIC, broth microdilution. The settings on record: Staphylococcus aureus, ATCC700699|VISA, read-out: MIC S. aureus ATCC 700699 (VISA). It is filed as cell-based.
The subject of another test is E. faecalis ATCC 29212. Description: MIC, broth microdilution. It is filed as cell-based. The settings on record: Enterococcus faecalis, ATCC29212, read-out: MIC E. faecalis ATCC 29212.
A further test concerns E. coli ATCC 25922. Description: MIC, broth microdilution. Format: cell-based. The settings on record: Escherichia coli, ATCC25922, read-out: MIC E. coli ATCC 25922.
The subject of the next test is P. aeruginosa ATCC 27853. Description: MIC, broth microdilution. It is filed as cell-based. The settings on record: Pseudomonas aeruginosa, ATCC27853, read-out: MIC P. aeruginosa ATCC 27853.
The test system of the next test is A. baumannii ATCC 17978. Description: MIC, broth microdilution. Format: cell-based. The settings on record: Acinetobacter baumannii, ATCC17978, read-out: MIC A. baumannii ATCC 17978.
A further test relates to K. pneumoniae ATCC 10031. Description: MIC, broth microdilution. The settings on record: Klebsiella pneumoniae, ATCC10031, read-out: MIC K. pneumoniae ATCC 10031. Format: cell-based.
For test [3], the system named is E. spp. cloacae ATCC 13047. The experiment in a line: MIC, broth microdilution. Format: cell-based. The settings on record: read-out: MIC E. spp. cloacae ATCC 13047.
The next test addresses E. coli DNA gyrase (Escherichia coli, UniProt P0AES6). Description: DNA gyrase supercoiling plate assay. It is filed as biochemical. The settings on record: IC50 E. coli gyrase, supercoiling assay.
The next test relates to A. baumannii ATCC 19606. Description: MIC, broth microdilution. Format: cell-based. The settings on record: Acinetobacter baumannii, ATCC19606, read-out: MIC A. baumannii ATCC 19606.
Test [4] has as its system K. pneumoniae ATCC 700603. The experiment in a line: MIC, broth microdilution. Format: cell-based. The settings on record: Klebsiella pneumoniae, ATCC700603, read-out: MIC K. pneumoniae ATCC 700603.
Another test relates to K. aerogenes ATCC 13408. The experiment in a line: MIC, broth microdilution. The settings on record: Klebsiella aerogenes, ATCC13408, read-out: MIC K. aerogenes ATCC 13408. It is filed as cell-based.
The next test concerns the target S. aureus DNA gyrase (Staphylococcus aureus, UniProt P0A0K8). The experiment in a line: DNA gyrase supercoiling plate assay. Format: biochemical. The settings on record: for remaining activity at 1 µM: read-out: RA (residual activity) S. aureus gyrase.
Test [5] concerns the target S. aureus topoisomerase IV (Staphylococcus aureus, UniProt P0C1S7). Description: topoisomerase IV relaxation plate assay. Format: biochemical. The settings on record: for remaining activity at 1 µM: read-out: RA (residual activity) S. aureus topo IV.
The target of test [6] is human DNA topoisomerase IIα (Homo sapiens, UniProt P11388). The experiment in a line: human DNA topoisomerase IIα inhibition. It is filed as biochemical. The settings on record: read-out: RA (residual activity) Human topo IIα.

Chain of E. coli topoisomerase IV (P20083 whole entry): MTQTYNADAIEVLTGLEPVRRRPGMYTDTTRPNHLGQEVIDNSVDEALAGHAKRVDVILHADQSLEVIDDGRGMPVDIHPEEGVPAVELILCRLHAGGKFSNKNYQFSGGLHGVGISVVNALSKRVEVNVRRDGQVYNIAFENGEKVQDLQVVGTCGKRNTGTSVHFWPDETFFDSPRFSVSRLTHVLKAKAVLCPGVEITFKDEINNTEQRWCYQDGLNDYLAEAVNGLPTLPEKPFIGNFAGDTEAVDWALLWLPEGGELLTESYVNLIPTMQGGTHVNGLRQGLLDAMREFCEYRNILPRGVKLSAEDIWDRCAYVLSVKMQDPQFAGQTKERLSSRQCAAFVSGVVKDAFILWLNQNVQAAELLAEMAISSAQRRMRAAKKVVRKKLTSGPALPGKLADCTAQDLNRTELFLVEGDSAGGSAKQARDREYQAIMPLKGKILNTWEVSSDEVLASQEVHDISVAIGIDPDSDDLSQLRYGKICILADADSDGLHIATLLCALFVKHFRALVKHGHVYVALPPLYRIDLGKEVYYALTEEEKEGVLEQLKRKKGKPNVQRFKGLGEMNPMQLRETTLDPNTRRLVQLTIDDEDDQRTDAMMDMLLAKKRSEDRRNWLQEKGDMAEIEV
Chain of E. coli topoisomerase IV (P0AFI2 whole entry partner): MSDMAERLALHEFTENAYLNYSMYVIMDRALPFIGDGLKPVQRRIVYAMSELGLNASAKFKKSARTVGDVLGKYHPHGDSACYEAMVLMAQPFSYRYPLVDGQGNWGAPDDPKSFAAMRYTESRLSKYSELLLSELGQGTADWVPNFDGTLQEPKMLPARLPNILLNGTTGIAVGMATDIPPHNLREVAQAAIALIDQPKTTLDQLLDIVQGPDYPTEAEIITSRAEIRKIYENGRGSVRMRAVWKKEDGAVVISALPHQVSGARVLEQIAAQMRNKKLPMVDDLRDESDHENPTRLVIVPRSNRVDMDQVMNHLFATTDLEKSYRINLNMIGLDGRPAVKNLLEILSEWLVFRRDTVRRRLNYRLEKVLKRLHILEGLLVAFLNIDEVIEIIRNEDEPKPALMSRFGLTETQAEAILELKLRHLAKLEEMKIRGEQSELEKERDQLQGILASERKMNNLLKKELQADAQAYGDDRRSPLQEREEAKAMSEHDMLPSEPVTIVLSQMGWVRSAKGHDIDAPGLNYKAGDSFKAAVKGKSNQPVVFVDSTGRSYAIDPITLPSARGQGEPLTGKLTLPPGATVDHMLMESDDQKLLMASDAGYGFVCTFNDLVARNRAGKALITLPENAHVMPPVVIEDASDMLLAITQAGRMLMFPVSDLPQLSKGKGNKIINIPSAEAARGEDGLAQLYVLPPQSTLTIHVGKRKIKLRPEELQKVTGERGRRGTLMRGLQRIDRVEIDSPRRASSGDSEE
Chain of S. aureus topoisomerase IV (P0C1S7 whole entry): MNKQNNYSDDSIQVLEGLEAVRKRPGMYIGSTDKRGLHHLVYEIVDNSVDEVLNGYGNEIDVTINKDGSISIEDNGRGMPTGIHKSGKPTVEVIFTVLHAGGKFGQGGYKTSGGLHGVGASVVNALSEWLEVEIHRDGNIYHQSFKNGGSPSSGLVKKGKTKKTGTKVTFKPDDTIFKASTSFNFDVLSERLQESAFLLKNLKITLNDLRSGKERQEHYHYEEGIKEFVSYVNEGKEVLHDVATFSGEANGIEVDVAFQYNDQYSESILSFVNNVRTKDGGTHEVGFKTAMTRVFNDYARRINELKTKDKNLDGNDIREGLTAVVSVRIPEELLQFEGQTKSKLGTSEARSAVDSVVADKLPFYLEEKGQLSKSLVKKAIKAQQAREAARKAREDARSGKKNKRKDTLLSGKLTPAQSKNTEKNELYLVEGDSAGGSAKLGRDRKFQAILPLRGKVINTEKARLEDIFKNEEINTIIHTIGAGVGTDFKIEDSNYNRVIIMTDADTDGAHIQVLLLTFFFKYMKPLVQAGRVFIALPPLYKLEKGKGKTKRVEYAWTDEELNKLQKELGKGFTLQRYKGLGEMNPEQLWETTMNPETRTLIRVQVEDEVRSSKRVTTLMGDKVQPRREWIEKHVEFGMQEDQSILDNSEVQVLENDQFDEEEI
Chain of S. aureus topoisomerase IV (P0C1U9 whole entry partner): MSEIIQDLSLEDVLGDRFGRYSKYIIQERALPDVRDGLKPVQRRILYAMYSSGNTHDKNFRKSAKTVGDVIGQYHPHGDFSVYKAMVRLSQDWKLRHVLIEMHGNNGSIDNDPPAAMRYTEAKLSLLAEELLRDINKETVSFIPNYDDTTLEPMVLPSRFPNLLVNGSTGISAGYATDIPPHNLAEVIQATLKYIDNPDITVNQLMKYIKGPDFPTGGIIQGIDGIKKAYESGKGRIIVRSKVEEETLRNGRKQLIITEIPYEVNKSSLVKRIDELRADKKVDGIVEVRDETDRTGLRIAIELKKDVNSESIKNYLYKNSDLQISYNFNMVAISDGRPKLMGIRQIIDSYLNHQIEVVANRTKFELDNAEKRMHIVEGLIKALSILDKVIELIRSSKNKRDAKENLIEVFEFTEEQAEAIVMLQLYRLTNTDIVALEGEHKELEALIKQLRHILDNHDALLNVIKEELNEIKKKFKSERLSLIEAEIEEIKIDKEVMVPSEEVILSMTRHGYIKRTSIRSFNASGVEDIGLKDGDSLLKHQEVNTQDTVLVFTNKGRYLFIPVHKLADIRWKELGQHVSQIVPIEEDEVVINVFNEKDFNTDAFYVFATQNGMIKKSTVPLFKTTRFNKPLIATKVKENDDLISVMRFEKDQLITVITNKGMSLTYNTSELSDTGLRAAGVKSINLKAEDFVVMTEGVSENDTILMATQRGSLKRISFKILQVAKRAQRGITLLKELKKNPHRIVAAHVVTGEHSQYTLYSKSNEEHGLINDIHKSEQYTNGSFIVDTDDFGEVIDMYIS
Chain of S. aureus DNA gyrase (P0A0K8 whole entry): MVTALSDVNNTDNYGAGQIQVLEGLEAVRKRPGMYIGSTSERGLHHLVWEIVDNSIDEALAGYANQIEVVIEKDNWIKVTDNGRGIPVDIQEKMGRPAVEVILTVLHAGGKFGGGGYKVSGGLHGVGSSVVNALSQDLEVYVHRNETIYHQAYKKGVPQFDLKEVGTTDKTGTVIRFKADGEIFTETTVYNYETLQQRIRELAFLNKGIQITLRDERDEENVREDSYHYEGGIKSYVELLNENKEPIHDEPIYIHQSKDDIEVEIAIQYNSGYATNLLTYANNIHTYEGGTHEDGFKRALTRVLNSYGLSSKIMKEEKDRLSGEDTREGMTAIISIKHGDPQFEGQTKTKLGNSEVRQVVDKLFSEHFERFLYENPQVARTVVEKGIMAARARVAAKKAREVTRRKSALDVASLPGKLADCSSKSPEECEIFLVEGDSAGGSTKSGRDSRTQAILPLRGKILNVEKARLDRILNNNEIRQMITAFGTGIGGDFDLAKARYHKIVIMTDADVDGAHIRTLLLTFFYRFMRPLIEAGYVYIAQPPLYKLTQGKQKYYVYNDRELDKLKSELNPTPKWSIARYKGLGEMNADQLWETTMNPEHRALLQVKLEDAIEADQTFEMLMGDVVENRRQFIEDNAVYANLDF
Chain of S. aureus DNA gyrase (P20831 whole entry partner): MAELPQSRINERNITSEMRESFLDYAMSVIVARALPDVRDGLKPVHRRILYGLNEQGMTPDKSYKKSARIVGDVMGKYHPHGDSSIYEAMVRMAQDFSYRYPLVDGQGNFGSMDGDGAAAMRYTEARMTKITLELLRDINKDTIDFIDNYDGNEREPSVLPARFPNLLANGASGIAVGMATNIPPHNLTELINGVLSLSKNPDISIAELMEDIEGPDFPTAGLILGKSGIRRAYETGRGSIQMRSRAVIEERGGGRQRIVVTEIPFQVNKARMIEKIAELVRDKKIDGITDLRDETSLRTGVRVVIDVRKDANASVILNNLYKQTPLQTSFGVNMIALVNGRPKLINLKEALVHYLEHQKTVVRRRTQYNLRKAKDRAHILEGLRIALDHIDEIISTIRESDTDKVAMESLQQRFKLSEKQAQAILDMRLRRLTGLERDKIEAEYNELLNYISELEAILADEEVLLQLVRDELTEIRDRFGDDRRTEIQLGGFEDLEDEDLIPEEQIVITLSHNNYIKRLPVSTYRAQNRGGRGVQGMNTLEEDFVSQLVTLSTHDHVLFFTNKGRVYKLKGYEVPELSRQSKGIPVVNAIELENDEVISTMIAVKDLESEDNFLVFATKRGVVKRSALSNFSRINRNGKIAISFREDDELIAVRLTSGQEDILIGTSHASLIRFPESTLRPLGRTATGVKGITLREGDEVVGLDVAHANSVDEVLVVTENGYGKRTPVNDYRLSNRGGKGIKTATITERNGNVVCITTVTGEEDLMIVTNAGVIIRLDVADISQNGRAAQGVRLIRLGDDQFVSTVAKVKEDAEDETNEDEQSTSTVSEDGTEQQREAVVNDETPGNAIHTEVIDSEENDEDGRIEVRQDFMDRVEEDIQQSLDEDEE

Broadly, the MIC is the lowest concentration found to suppress growth. Consider `Cc1[nH]c(C(=O)Nc2ccc(C(=O)O)cc2NC2CCNCC2)c(Cl)c1Cl.Cl` [Compound 20d, 4-((5-Carboxy-2-(3,4-dichloro-5-methyl-1H-pyrrole-2-carboxamido)phenyl)amino)piperidin-1-ium chloride], for which, at E. coli topoisomerase IV, the remaining activity at 10 µM was 89%. In addition, the MIC (in the test on S. aureus ATCC 29213; in test [1]; in test [2]; in the test on E. faecalis ATCC 29212; in the test with E. coli ATCC 25922; in the test on P. aeruginosa ATCC 27853) was over 64 µg/mL in each case. Moreover, the MIC (in the test with A. baumannii ATCC 17978; with K. pneumoniae ATCC 10031; in test [3]) was over 64 µg/mL throughout.

Usually IC50 stands for the point on the concentration scale where inhibition reaches its midpoint. Lower therefore signals greater potency. For the compound `Cc1[nH]c(C(=O)Nc2ccc(C(=O)O)cc2N2CCC[C@H](N)C2)c(Cl)c1Cl.Cl` [Compound 20c, (S)-1-(5-Carboxy-2-(3,4-dichloro-5-methyl-1H-pyrrole-2-carboxamido)phenyl)piperidin-3-aminium chloride], the IC50 at E. coli DNA gyrase came out at 134 nM. Also, on E. coli topoisomerase IV, the remaining activity at 1 µM came to 78%. The MIC in the test with S. aureus ATCC 29213 is over 32 µg/mL; in [1] it was over 64 µg/mL; in test [2], over 64 µg/mL; with E. coli ATCC 25922, over 32 µg/mL; with P. aeruginosa ATCC 27853, over 32 µg/mL; with A. baumannii ATCC 17978, over 64 µg/mL. For the same compound, the MIC is over 32 µg/mL in the test on A. baumannii ATCC 19606; over 64 µg/mL with K. pneumoniae ATCC 10031; over 32 µg/mL in [4]; over 64 µg/mL in [3]; over 32 µg/mL in the test with K. aerogenes ATCC 13408.

With `COC(=O)c1ccc(NC(=O)c2[nH]c(C)c(Cl)c2Cl)c(N2CCC[C@H](N)C2)c1.Cl` [Compound 19c, (S)-1-(2-(3,4-Dichloro-5-methyl-1H-pyrrole-2-carboxamido)-5-(methoxycarbonyl)phenyl)piperidin-3-aminium chloride], inhibition against E. coli DNA gyrase was half-maximal at 120 nM (IC50). In addition, the results for the remaining activity at 1 µM at S. aureus DNA gyrase and at E. coli topoisomerase IV were 27% and 79%, respectively. The MIC with S. aureus ATCC 29213 is 8 µg/mL; with E. coli ATCC 25922 it was over 32 µg/mL; in the test on P. aeruginosa ATCC 27853, over 32 µg/mL; in the test on A. baumannii ATCC 19606, 16 µg/mL; in the test on K. pneumoniae ATCC 10031 it was 4 µg/mL; in test [4], over 32 µg/mL. For the same compound, the MIC in the test with K. aerogenes ATCC 13408 was over 32 µg/mL.

For `COC(=O)c1ccc(NC(=O)c2[nH]c(C)c(Cl)c2Cl)c(N2CCNCC2)c1.Cl` [Compound 19a, 4-(2-(3,4-Dichloro-5-methyl-1H-pyrrole-2-carboxamido)-5-(methoxycarbonyl)phenyl)piperazin-1-ium chloride], the IC50 on E. coli DNA gyrase came out at 100 nM. The figures for the remaining activity at 1 µM (on S. aureus DNA gyrase; at E. coli topoisomerase IV; in [5]) were 45%, 102% and 95%, respectively. For the same compound, the MIC in the test with S. aureus ATCC 29213 was over 32 µg/mL; in the test on E. coli ATCC 25922, over 32 µg/mL; in the test on P. aeruginosa ATCC 27853 it was over 32 µg/mL; in the test with A. baumannii ATCC 19606 it was 16 µg/mL; in [4] it was over 32 µg/mL; with K. aerogenes ATCC 13408 it was over 32 µg/mL.

Take `Cc1[nH]c(C(=O)Nc2ccc(C(=O)NCC(=O)O)cc2N2CC[C@H](N)C2)c(Cl)c1Cl` [Compound 10b, (S)-1-(5-((Carboxymethyl)carbamoyl)-2-(3,4-dichloro-5-methyl-1H-pyrrole-2-carboxamido)phenyl)pyrrolidin-3-aminium chloride]: the IC50 was 19.3 nM against E. coli DNA gyrase, 112 nM against S. aureus DNA gyrase, 958 nM against E. coli topoisomerase IV and 2560 nM in test [5]. For the same compound, the remaining activity at 10 µM in test [6] amounted to 82%.

As to `Cc1[nH]c(C(=O)Nc2ccc(C(=O)O)cc2N2CCNCC2)c(Cl)c1Cl.Cl` [Compound 20a, 4-(5-Carboxy-2-(3,4-dichloro-5-methyl-1H-pyrrole-2-carboxamido)phenyl)piperazin-1-ium chloride], the figures for the remaining activity at 1 µM (on E. coli topoisomerase IV; in test [5]) were 106% and 92%, respectively. The remaining activity at 40 µM in test [6] is 116%. For the same compound, the MIC with S. aureus ATCC 29213 is over 32 µg/mL; in test [1] it was over 64 µg/mL; in [2], over 64 µg/mL; with E. coli ATCC 25922, over 32 µg/mL; in the test with P. aeruginosa ATCC 27853, over 32 µg/mL; in the test with A. baumannii ATCC 17978, over 64 µg/mL. The MIC with A. baumannii ATCC 19606 was over 32 µg/mL; in the test on K. pneumoniae ATCC 10031, over 64 µg/mL; in test [4], over 32 µg/mL; in test [3], over 64 µg/mL; in the test with K. aerogenes ATCC 13408, over 32 µg/mL.

`Cc1[nH]c(C(=O)Nc2ccc(C(=O)NCC(=O)O)cc2N2CCN(C(=O)OC(C)(C)C)CC2)c(Cl)c1Cl` [Compound 8a, (3-(4-(tert-Butoxycarbonyl)piperazin-1-yl)-4-(3,4-dichloro-5-methyl-1H-pyrrole-2-carboxamido)benzoyl)glycine] gave an IC50 against E. coli DNA gyrase of 84.1 nM. In addition, the figures for the remaining activity at 1 µM (on S. aureus DNA gyrase; at E. coli topoisomerase IV; in test [5]) were 37%, 93% and 22%, respectively.

On E. coli topoisomerase IV, `Cc1[nH]c(C(=O)Nc2ccc(-c3n[nH]c(=O)o3)cc2NC2CCNCC2)c(Cl)c1Cl.Cl` [Compound 23d, 4-((2-(3,4-Dichloro-5-methyl-1H-pyrrole-2-carboxamido)-5-(5-oxo-4,5-dihydro-1,3,4-oxadiazol-2-yl)phenyl)amino)piperidin-1-ium chloride] yielded an IC50 of 1260 nM. Moreover, the remaining activity at 10 µM in [6] turned out to be 99%. Further, the MIC (in the test on S. aureus ATCC 29213; in [1]; in test [2]; in the test with E. faecalis ATCC 29212; with E. coli ATCC 25922; in the test with P. aeruginosa ATCC 27853) was over 64 µg/mL throughout. Moreover, the values for the MIC (in the test on A. baumannii ATCC 17978; in the test with K. pneumoniae ATCC 10031; in [3]) were over 64 µg/mL, 2 µg/mL and over 64 µg/mL, respectively.

With `Cc1[nH]c(C(=O)Nc2ccc(C(=O)O)cc2N2CCN(c3ccccc3)CC2)c(Cl)c1Cl` [Compound 18h, 4-(3,4-Dichloro-5-methyl-1H-pyrrole-2-carboxamido)-3-(4-phenylpiperazin-1-yl)benzoic acid], on E. coli topoisomerase IV, the remaining activity at 10 µM worked out at 85%. Further, the MIC (in the test with S. aureus ATCC 29213; in test [1]; in test [2]; in the test on E. faecalis ATCC 29212; with E. coli ATCC 25922; in the test with P. aeruginosa ATCC 27853) was over 64 µg/mL throughout. The MIC (in the test on A. baumannii ATCC 17978; with K. pneumoniae ATCC 10031; in test [3]) was over 64 µg/mL in each case.

Consider `Cc1[nH]c(C(=O)Nc2ccc(-c3n[nH]c(=O)o3)cc2OCc2ccccc2)c(Cl)c1Cl` [Compound 39, N-(2-(Benzyloxy)-4-(5-oxo-4,5-dihydro-1,3,4-oxadiazol-2-yl)phenyl)-3,4-dichloro-5-methyl-1H-pyrrole-2-carboxamide], for which the remaining activity at 1 µM at E. coli topoisomerase IV came to 101%. For the same compound, in test [6], the remaining activity at 100 µM stood at 104%. Further, the MIC (in the test with S. aureus ATCC 29213; in [1]; in [2]; in the test with E. faecalis ATCC 29212; in the test on E. coli ATCC 25922; with P. aeruginosa ATCC 27853) was over 32 µg/mL throughout. Besides, the MIC (with A. baumannii ATCC 17978; with K. pneumoniae ATCC 10031; in [3]) was over 32 µg/mL each time.

As to `COC(=O)c1ccc(NC(=O)c2[nH]c(C)c(Cl)c2Cl)c(N2CCCC(CN)C2)c1.Cl` (stereo not drawn) [Compound 19i, (1-(2-(3,4-Dichloro-5-methyl-1H-pyrrole-2-carboxamido)-5-(methoxycarbonyl)phenyl)piperidin-3-yl)methanaminium chloride], the IC50 against E. coli DNA gyrase turned out to be 14.2 nM; against E. coli topoisomerase IV, 533 nM. Besides, the MIC with S. aureus ATCC 29213 was 8 µg/mL; in test [1] it was 2 µg/mL; in test [2] it was 1 µg/mL; in the test on E. coli ATCC 25922 it was 4 µg/mL; in the test with P. aeruginosa ATCC 27853 it was over 32 µg/mL; with A. baumannii ATCC 17978, 8 µg/mL. For the same compound, the MIC in the test on A. baumannii ATCC 19606 was 8 µg/mL; in the test on K. pneumoniae ATCC 10031, 8 µg/mL; in test [4], over 32 µg/mL; in test [3], over 64 µg/mL; with K. aerogenes ATCC 13408 it was over 32 µg/mL.
